Results on 57 compounds are retold here after US9718790B2, “Triazine derivative and pharmaceutical composition having an analgesic activity comprising the same” (SHIONOGI & CO., LTD., priority 2010, dated 2017).

By IC50 is commonly meant the concentration that inhibits the measured activity by half.

One test deals with human P2X3 receptor (Homo sapiens (Human), UniProt P56373). The test can be described thus: Evaluation of human P2X3 receptor inhibitory activity (Fluo-3 calcium fluorescence, FDSS 3000, ATP stimulation).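 Further: stimulus was 50 nM ATP with fluorescence followed for 3 min, and the response per well was peak post-ATP fluorescence divided by the reading at measurement start.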 It counts as cell-based. To be noted: C6BU-1 cells stably expressing human P2X3 receptor.
human P2X3 receptor, sequence (P56373 whole entry): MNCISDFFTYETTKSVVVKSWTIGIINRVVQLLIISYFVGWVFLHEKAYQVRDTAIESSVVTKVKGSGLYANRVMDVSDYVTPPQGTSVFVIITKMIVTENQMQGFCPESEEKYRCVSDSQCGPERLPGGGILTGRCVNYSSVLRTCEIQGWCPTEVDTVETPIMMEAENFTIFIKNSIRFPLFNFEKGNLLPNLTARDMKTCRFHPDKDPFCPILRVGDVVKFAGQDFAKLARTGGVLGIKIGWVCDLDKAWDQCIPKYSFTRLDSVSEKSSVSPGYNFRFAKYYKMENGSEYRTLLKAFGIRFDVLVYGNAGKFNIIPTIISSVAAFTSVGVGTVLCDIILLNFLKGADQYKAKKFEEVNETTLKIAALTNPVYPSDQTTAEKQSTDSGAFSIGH
Consider `CCn1c(=O)[nH]/c(=N\c2ccc(Oc3ccc(C(=O)OC)nc3)cc2)n(Cc2ccc(C)cc2)c1=O` [Compound I-2106], for which the IC50 is 0.002 µM. For the compound `CCn1c(=O)[nH]/c(=N\c2ccc(Oc3cccc(C(=O)O)c3)cc2)n(Cc2ccc(C)cc2)c1=O` [Compound I-2034], the IC50 amounted to 0.009 µM. Consider `COC(=O)[C@@H](C)Cn1c(=O)[nH]/c(=N\c2ccc(OCC(C)C)cc2)n(Cc2ccc(C)cc2)c1=O` [Compound I-0812], for which the IC50 worked out at 0.033 µM. In the case of `Cc1ccc(Cn2c(=O)n(CCCC(=O)O)c(=O)[nH]/c2=N\c2ccc(Oc3ccncc3)cc2)cc1` [Compound I-1243], the IC50 was found to be 0.012 µM. Regarding `CCOC(=O)CCn1c(=O)[nH]/c(=N\c2ccc(Oc3cccnc3)cc2)n(Cc2ccc(C)cc2)c1=O` [Compound I-1229], the IC50 came out at 0.004 µM. On to `COC(=O)[C@@H](C)Cn1c(=O)[nH]/c(=N\c2ccc(CC(C)C)c(OC)c2)n(Cc2ccc(Cl)cc2)c1=O` [Compound I-1247], for which the IC50 is 0.028 µM. Turning to `Cc1[nH]c2ccc(/N=c3\[nH]c(=O)n(CCC(N)=O)c(=O)n3Cc3ccc(Cl)cc3)cc2c1C` [Compound I-1966], the IC50 turned out to be 0.011 µM.

Take `C[C@H](C(=O)O)[C@@H](C)n1c(=O)[nH]/c(=N\c2ccc(N3CCCCC3)cc2)n(Cc2ccc(Cl)cc2)c1=O` [Compound I-1458]: the IC50 amounted to 0.025 µM. With `COC(=O)[C@@H](C)Cn1c(=O)[nH]/c(=N\c2ccc(OC(C)C)c(C)c2)n(Cc2ccc(F)cc2)c1=O` [Compound I-0625], the IC50 is 0.066 µM. On to `Cc1ccc(Cn2c(=O)n(CCC(=O)O)c(=O)[nH]/c2=N\c2ccc(Oc3cccnc3)cc2)cc1` [Compound I-1227], for which the IC50 stood at 0.03 µM. Same read-out and setting: the same measure for `CNC(=O)CCn1c(=O)[nH]/c(=N\c2ccc3[nH]c(C)c(C)c3c2)n(Cc2ccc(Cl)cc2)c1=O` [Compound I-1967]: 0.008 µM.

In the case of `CCOC(=O)C1(Cn2c(=O)[nH]/c(=N\c3ccc(OC(C)C)c(C)c3)n(Cc3ccc(Cl)cc3)c2=O)CC1` [Compound I-0694], the IC50 amounted to 0.013 µM.

For the compound `CCCc1ccc(/N=c2\[nH]c(=O)n(CCC(=O)O)c(=O)n2Cc2ccc(Cl)cc2)cc1C` [Compound I-1253], the IC50 was found to be 0.281 µM.

Take `CCn1c(=O)[nH]/c(=N\c2ccc(Oc3ccnc(C(=O)O)c3)cc2)n(Cc2ccc(Cl)cn2)c1=O` [Compound I-2211]: the IC50 was found to be 0.014 µM.

`CC(C)Oc1ccc(/N=c2\[nH]c(=O)n(CCS(N)(=O)=O)c(=O)n2Cc2ccc(Cl)cc2)cc1F` [Compound I-0693, 1-(4-chlorobenzyl)-6-(3-fluoro-4-isopropoxyphenylimino)-3-(2-sulfamoylethyl)-1,3,5-triazinane-2,4-dion]: the IC50 was 0.013 µM.

`C[C@@H](Cn1c(=O)[nH]/c(=N\c2ccc3c(c2)COCO3)n(Cc2ccc(Cl)cc2)c1=O)C(=O)O` [Compound I-0746]: the IC50 is 0.14 µM. In the case of `Cc1ccc(Cn2c(=O)n(CCC(=O)O)c(=O)[nH]/c2=N\c2cccc(C(F)(F)F)c2C)cc1` [Compound I-2085], the IC50 is 0.852 µM. For `CCOC(=O)C1(Cn2c(=O)[nH]/c(=N\c3ccc(CC(C)C)c(Cl)c3)n(Cc3ccc(C)cc3)c2=O)CC1` [Compound I-1448], the IC50 was determined as 0.012 µM. On to `Cc1ccc(Cn2c(=O)n(C[C@H](C)C(=O)O)c(=O)[nH]/c2=N\c2ccc(/C=C/C3CC3)cc2)cc1` [Compound I-1200], for which the IC50 turned out to be 0.045 µM.

Take `CO/N=C(\Cn1c(=O)[nH]/c(=N\c2ccc(OC(C)C)c(C)c2)n(Cc2ccc(Cl)cc2)c1=O)C(=O)O` [Compound I-0756]: the 50% inhibitory concentration (IC50) was 0.131 µM. For `COC(=O)[C@@H](C)Cn1c(=O)[nH]/c(=N\c2cccc(C(C)C)c2)n(Cc2ccc(Cl)cc2)c1=O` [Compound I-0777], the IC50 stood at 0.116 µM. Turning to `CC(C)Oc1ccc(/N=c2\[nH]c(=O)n(CC(=O)NCC3CCOCC3)c(=O)n2Cc2ccc(Cl)cc2)cc1Cl` [Compound I-0664], the IC50 was 0.006 µM.

Still in this test, the particulars now being: C6BU-1 cells stably expressing human P2X3 receptor, Fluo-3 fluorescence, FDSS 3000.
With `CCc1oc2ccc(/N=c3\[nH]c(=O)n(CC4(C)COC(C)(C)OC4)c(=O)n3Cc3ccc(Cl)cc3)cc2c1C` [Compound I-1636], the IC50 was 0.009 µM. In the case of `CSc1cccc(/N=c2\[nH]c(=O)n(C[C@H](C)C(=O)O)c(=O)n2Cc2ccc(Cl)cc2)c1` [Compound I-1152], the IC50 came out at 0.11 µM. Still for that read-out and setting: the same measure for `CCc1ccc(Cn2c(=O)n(C[C@H](C)C(=O)OC)c(=O)[nH]/c2=N\c2ccc(OC(C)C)cc2)cc1` [Compound I-1133]: 0.051 µM; for `COC(=O)[C@@H](C)Cn1c(=O)[nH]/c(=N\c2ccc(OC(F)(F)F)c(Cl)c2)n(Cc2ccc(C)cc2)c1=O` [Compound I-1027]: 0.041 µM. For the compound `Cc1cc(/N=c2\[nH]c(=O)n(CC3CCN(CC(=O)O)CC3)c(=O)n2Cc2ccc(Cl)cc2)ccc1OC(C)C` [Compound I-1648], the IC50 stood at 0.16 µM. Still for that read-out and setting: the same measure for `CCc1oc2ccc(/N=c3\[nH]c(=O)n(CC(C)(CO)CO)c(=O)n3Cc3ccc(Cl)cc3)cc2c1C` [Compound I-1644]: 0.005 µM; for `Cc1ccc(Cn2c(=O)n(C[C@H](C)C(=O)O)c(=O)[nH]/c2=N\c2cccc(C3CCCC3)c2)cc1` [Compound I-1110]: 0.397 µM. The same measure, in the same setting: the same measure for `CC(C)n1c2c(c3cc(/N=c4\[nH]c(=O)n([C@@H](C)[C@@H](C)C(=O)O)c(=O)n4Cc4ccc(Cl)cc4)ccc31)CCCC2` [Compound I-1770]: 0.788 µM; for `COCO[C@@H](Cn1c(=O)[nH]/c(=N\c2ccc(OC(C)C)c(C)c2)n(Cc2ccc(Cl)cc2)c1=O)C(=O)OC` [Compound I-0993, (S)-1-(4-chlorobenzyl)-6-(3-mehyl-4-isopropoxyphenylimino)-3-[2-methoxycarbonyl-2-(methoxymethyloxy)ethyl]-1,3,5-triazinane-2,4-dion]: 0.02 µM; for `CC[C@@H](C)Oc1ccc(/N=c2\[nH]c(=O)n(CCC(=O)O)c(=O)n2Cc2ccc(C)cc2)cc1Cl` [Compound I-1030]: 0.014 µM.

As to `C[C@@H](Cn1c(=O)[nH]/c(=N\c2ccc(C=C3CCCC3)cc2)n(Cc2ccc(Cl)cc2)c1=O)C(=O)O` [Compound I-1099], the IC50 stood at 0.07 µM.

On to `Cn1c(=O)[nH]/c(=N\c2ccc(Oc3ccnc(O)c3)cc2)n(Cc2ccc(Cl)cc2)c1=O` [Compound I-1736], for which the IC50 came to 0.009 µM. Turning to `COC(=O)[C@@H](C)Cn1c(=O)[nH]/c(=N\c2ccc(OC3CCCCC3)nc2)n(Cc2ccc(C)cc2)c1=O` [Compound I-1184], the IC50 worked out at 0.138 µM. As to `COc1ccc(COc2cc(Cn3c(=O)[nH]/c(=N\c4ccc(OC(C)C)c(F)c4)n(Cc4ccc(Cl)cc4)c3=O)on2)cc1` [Compound I-1764], the IC50 was determined as 0.035 µM.

The same test, now with this note: human P2X3 receptor, Test Example 1.
For `CCn1c(=O)[nH]/c(=N\c2ccc(Oc3cc(C(N)=O)n[nH]3)cc2)n(Cc2ccc(Cl)cc2)c1=O` [Compound I-2417], the IC50 is 0.041 µM.

Consider `CCOC(=O)CCn1c(=O)[nH]/c(=N\c2ccc3oc(CC)c(C)c3c2)n(Cc2ccc(Cl)cc2)c1=O` [Compound I-1503], for which the IC50 is 0.012 µM. Same read-out and setting: to `CNC(=O)Cn1c(=O)[nH]/c(=N\c2ccc(Oc3ccon3)cc2)n(Cc2ccc(Cl)cc2)c1=O` [Compound I-2590] belongs 0.017 µM; to `COC(=O)c1cncc(Oc2ccc(/N=c3\[nH]c(=O)n(C4COC4)c(=O)n3Cc3ccc(Cl)cc3)cc2)c1` [Compound I-2332], 0.218 µM. With `CCOC(=O)Cn1c(=O)[nH]/c(=N\c2ccc(Oc3ccon3)cc2)n(Cc2ccc(Cl)cc2)c1=O` [Compound I-2627], the IC50 amounted to 0.007 µM. On to `CCOC(=O)C1(Cn2c(=O)[nH]/c(=N\c3ccc4nc(CC)sc4c3)n(Cc3ccc(Cl)cc3)c2=O)CC1` [Compound I-1539], for which the IC50 amounted to 0.004 µM.

On to `CCc1oc2ccc(/N=c3\[nH]c(=O)n(CCC(=O)O)c(=O)n3Cc3ccc(Cl)cc3)cc2c1C` [Compound I-1507], for which the half-maximal inhibitory concentration (IC50) was found to be 0.015 µM. For the compound `CCOc1ccc(/N=c2\[nH]c(=O)n([C@H](C)CC(=O)O)c(=O)n2Cc2ccc(C)cc2)cc1Cl` [Compound I-0879], the IC50 was found to be 0.058 µM. The same measure, in the same setting: the same measure for `CCCOc1ccc(/N=c2\[nH]c(=O)n([C@H](C)CC(=O)O)c(=O)n2Cc2ccc(C)cc2)cc1Cl` [Compound I-0880]: 0.049 µM. The same measure, in the same setting: to `CC[C@@H](C)n1c(=O)[nH]/c(=N\c2ccc(Oc3cncc(C(=O)O)c3)cc2)n(Cc2ccc(Cl)cc2)c1=O` [Compound I-2483] belongs 0.008 µM. Regarding `Cn1c(=O)[nH]/c(=N\c2ccc(Oc3cccc(C(=O)O)n3)cc2)n(C[C@H]2CC[C@H](C)CC2)c1=O` [Compound I-2465], the IC50 is 0.004 µM. The same measure, in the same setting: to `CCn1c(=O)[nH]/c(=N\c2ccc(Oc3nc(C(=O)O)c(C)s3)cc2)n(Cc2ccc(Cl)cc2)c1=O` [Compound I-2450] belongs 0.008 µM.

Take `COC(=O)[C@@H](C)Cn1c(=O)[nH]/c(=N\c2ccc(C3CC3)c(C3CC3)c2)n(Cc2ccc(C)cc2)c1=O` [Compound I-1488]: the IC50 was found to be 0.652 µM.

As for `Cc1cc(Oc2ccc(/N=c3\[nH]c(=O)n(C[C@@H]4COC(C)(C)O4)c(=O)n3Cc3ccc(Cl)cc3)cc2)no1` [Compound I-2228], the IC50 amounted to 0.005 µM. With `CNC(=O)Cn1c(=O)[nH]/c(=N\c2ccc(Oc3ncns3)cc2)n(Cc2ccc(Cl)cc2)c1=O` [Compound I-2673], the IC50 was 0.007 µM. For the compound `CCn1c(=O)[nH]/c(=N\c2ccc(Oc3ccc(C(=O)OC)nn3)cc2)n(Cc2ccc(Cl)cc2)c1=O` [Compound I-2269], the IC50 came out at 0.002 µM.

For `Cc1cc(Oc2ccc(/N=c3\[nH]c(=O)n(C[C@H](O)CO)c(=O)n3Cc3ccc(Cl)cc3)cc2)n(C)n1` [Compound I-2371], the IC50 stood at 0.102 µM. In the case of `COC(=O)C1(Cn2c(=O)[nH]/c(=N\c3ccc(OC(C)C)c(C)c3)n(Cc3ccc(Cl)cc3)c2=O)COC1` [Compound I-1480], the IC50 turned out to be 0.002 µM.

As for `Cn1c(=O)[nH]/c(=N\c2ccc(Oc3cccc(/C=C/C(=O)O)c3)cc2)n(Cc2ccc(Cl)cc2)c1=O` [Compound I-2364], the IC50 is 0.008 µM. As for `COC(=O)CCn1c(=O)[nH]/c(=N\c2ccc(Oc3cccc(C(N)=O)n3)cc2)n(Cc2ccc(C)cc2)c1=O` [Compound I-2682], the IC50 came to 0.002 µM.

For `CCn1c(=O)[nH]/c(=N\c2ccc(Oc3ccc(C(N)=O)nc3)cc2)n(Cc2ccc(Cl)cn2)c1=O` [Compound I-2279], the IC50 was found to be 0.033 µM.
